Data set [1] deals with T1, human norepinephrine transporter (Homo sapiens, UniProt P23975).
T1 construct: host or cells: HEK-293
The experiment in a line: hNET receptor binding ([125I]-RTI-55, membranes of transfected HEK-293 cells). As to conditions: 50 pM [125I]-RTI-55, 90 min room temperature; IC50 converted by Cheng-Prusoff. Put shortly:
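Competition binding on membranes from HEK-293 cells transfected with human NET, using 50 pM [125I]-RTI-55 in Krebs-HEPES pH 7.4, drug 10^−5 to 10^−12 M in duplicate, 90 min at room temperature, filtration. Nonspecific binding defined with 10 μM desipramine; IC50 converted to Ki by Cheng-Prusoff.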

For data set [2], the target named is T2, human serotonin transporter (Homo sapiens, UniProt P31645).
T2 construct: host or cells: HEK-293
Description: hSERT receptor binding ([125I]-RTI-55, membranes of transfected HEK-293 cells). As to conditions: 50 pM [125I]-RTI-55, 90 min room temperature; IC50 converted by Cheng-Prusoff. Put shortly:
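Membranes of HEK-293 cells expressing human SERT incubated 90 min at room temperature with 50 pM [125I]-RTI-55 and compound (10^−5 to 10^−12 M) in Krebs-HEPES, pH 7.4. Nonspecific binding defined with 10 μM citalopram; IC50 converted to Ki by Cheng-Prusoff.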

T1 sequence (P23975 whole entry): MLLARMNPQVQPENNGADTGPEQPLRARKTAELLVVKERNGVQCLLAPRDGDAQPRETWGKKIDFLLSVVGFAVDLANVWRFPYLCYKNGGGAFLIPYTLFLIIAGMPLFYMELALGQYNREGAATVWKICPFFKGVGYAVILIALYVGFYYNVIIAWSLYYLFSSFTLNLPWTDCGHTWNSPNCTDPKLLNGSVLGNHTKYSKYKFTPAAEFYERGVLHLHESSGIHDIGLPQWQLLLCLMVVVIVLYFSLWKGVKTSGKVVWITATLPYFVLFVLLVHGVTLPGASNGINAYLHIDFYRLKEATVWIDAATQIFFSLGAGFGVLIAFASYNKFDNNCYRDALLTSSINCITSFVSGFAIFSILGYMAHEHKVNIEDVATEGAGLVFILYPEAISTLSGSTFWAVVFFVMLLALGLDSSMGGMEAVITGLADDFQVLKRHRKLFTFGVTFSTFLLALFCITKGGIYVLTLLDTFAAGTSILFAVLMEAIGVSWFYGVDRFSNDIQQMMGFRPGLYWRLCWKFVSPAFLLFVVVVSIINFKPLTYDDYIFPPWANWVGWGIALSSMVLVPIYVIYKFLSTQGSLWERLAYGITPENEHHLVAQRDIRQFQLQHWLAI
T2 sequence (P31645 whole entry): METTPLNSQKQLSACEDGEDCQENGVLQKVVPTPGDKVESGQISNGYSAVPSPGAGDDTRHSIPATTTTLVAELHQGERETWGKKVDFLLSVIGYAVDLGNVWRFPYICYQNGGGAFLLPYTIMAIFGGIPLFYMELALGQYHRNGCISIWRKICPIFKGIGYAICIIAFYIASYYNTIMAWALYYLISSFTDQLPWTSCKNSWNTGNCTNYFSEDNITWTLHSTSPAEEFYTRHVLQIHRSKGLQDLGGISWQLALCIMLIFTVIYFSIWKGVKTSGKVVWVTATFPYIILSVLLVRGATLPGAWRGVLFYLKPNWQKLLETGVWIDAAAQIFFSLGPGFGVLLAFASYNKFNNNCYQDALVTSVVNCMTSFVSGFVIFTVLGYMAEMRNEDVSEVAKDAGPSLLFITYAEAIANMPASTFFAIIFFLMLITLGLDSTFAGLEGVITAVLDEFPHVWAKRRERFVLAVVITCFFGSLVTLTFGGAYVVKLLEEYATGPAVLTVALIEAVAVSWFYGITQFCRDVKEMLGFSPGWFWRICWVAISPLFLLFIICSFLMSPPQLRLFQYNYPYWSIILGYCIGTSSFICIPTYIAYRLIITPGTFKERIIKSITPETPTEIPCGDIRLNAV

Turning to `Cl.NC1CCN(c2nc(-c3ccccc3)c3ccccc3n2)CC1` [Example 12, 1-(4-Phenyl-quinazolin-2-yl)-piperidin-4-ylamine hydrochloride], the melting point – broadly, the temperature, or range, at which the solid turns liquid – was over 300 °C. In data set [1], affinity was put at a Ki of 95.5 nM.
`CN1CCN(c2nc(-c3ccccc3)c3ccccc3n2)CC1` [Example 1, 2-(4-Methyl-piperazin-1-yl)-4-phenyl-quinazoline] gave a melting point of 101 to 122 °C. For the same compound, the affinity in data set [1], expressed as Ki, was 29.7 nM.
Turning to `c1ccc(-c2nc(N3C4CCC3CNC4)nc3ccccc23)cc1` [Example 56, 2-(3,8-Diaza-bicyclo[3.2.1]oct-8-yl)-4-phenyl-quinazoline], the melting point fell in the range of 278 to 280 °C. Moreover, the Ki (usually the dissociation constant of the complex between target and ligand, obtained from inhibition or displacement) in data set [1] worked out at 5 nM.
For `CN1CCN(c2nc(-c3cccc(F)c3)c3ccccc3n2)CC1` [Example 26, 4-(3-Fluoro-phenyl)-2-(4-methyl-piperazin-1-yl)-quinazoline], the melting point is 134 to 135 °C. Also, in data set [1], affinity was put at a Ki of 34.9 nM.
`CC1CN(c2nc(-c3ccccc3)c3ccccc3n2)CCN1` (stereo not shown) [Example 54, 2-(3-Methyl-piperazin-1-yl)-4-phenyl-quinazoline] gave a melting point of 107 to 108 °C. The compound also yielded a Ki in data set [1] of 41 nM.
The corresponding values for `CC1CN(c2nc(-c3ccccc3)c3ccccc3n2)C(C)CN1.Cl` (stereo not shown) [Example 9, 2-(2,5-Dimethyl-piperazin-1-yl)-4-phenyl-quinazoline hydrochloride] are 221 to 222 °C and 22 nM.
`Cl.NCCC1CCCN(c2nc(-c3ccccc3)c3ccccc3n2)C1` (stereo not shown) [Example 11, 2-[1-(4-Phenyl-quinazolin-2-yl)-piperidin-3-yl]-ethylamine hydrochloride]: the melting point is 86 to 88 °C. Also, the Ki in data set [1] turned out to be 80.5 nM.
On to `CN1CC2CCCC(C1)N2c1nc(-c2ccccc2)c2ccccc2n1` [Example 5, 2-(3-Methyl-3,9-diaza-bicyclo[3.3.1]non-9-yl)-4-phenyl-quinazoline], for which the melting point is 118 to 121 °C. Affinity in data set [1] was put at a Ki of 42 nM.
As to `COC(=O)C1(c2nc(-c3ccccc3)c3ccccc3n2)CCCNC1.Cl` (stereo not shown) [Example 52, 3-(4-Phenyl-quinazolin-2-yl)-piperidine-3-carboxylic acid methyl ester hydrochloride], the melting point fell in the range of 143 to 145 °C. For the same compound, the Ki in data set [1] worked out at 53.4 nM.
The compound `Cc1ccccc1-c1nc(N2CCN(C)CC2)nc2ccccc12` [Example 4, 2-(4-Methyl-piperazin-1-yl)-4-o-tolyl-quinazoline] returned a melting point of 91 to 94 °C. For the same compound, in data set [1], the Ki was 34.1 nM.
In turn, `Fc1ccc2c(-c3ccccc3F)nc(N3CCNCC3)nc2c1` [Example 59, 7-Fluoro-4-(2-fluoro-phenyl)-2-piperazin-1-yl-quinazoline] came in with a melting point of 147 to 148 °C. Also, affinity in data set [1] was put at a Ki of 2.7 nM.
`Cl.Fc1ccccc1-c1nc(N2CC3CNCC3C2)nc2ccccc12` (stereo not shown) [Example 39, 4-(2-Fluoro-phenyl)-2-(hexahydro-pyrrolo[3,4-c]pyrrol-2-yl)-quinazoline hydrochloride] gave a melting point of 270 to 278 °C. This compound also showed a Ki in data set [1] of 41 nM.
With `Cl.N[C@H]1CCN(c2nc(-c3ccccc3F)c3ccccc3n2)C1` [Example 34, (S)-(+)-1-[4-(2-Fluoro-phenyl)-quinazolin-2-yl]-pyrrolidin-3-ylamine hydrochloride], the melting point is 285 to 287 °C. This compound registered a Ki in data set [1] of 3.8 nM.
As for `COC(=O)C1(c2nc(-c3ccccc3F)c3ccccc3n2)CCNCC1.Cl` [Example 51, 4-[4-(2-Fluoro-phenyl)-quinazolin-2-yl]-piperidine-4-carboxylic acid methyl ester hydrochloride], the melting point was 210 to 211 °C. In data set [1], this compound returned a Ki of 15.1 nM.
The corresponding values for `Fc1cccc(-c2nc(N3CCCNCC3)nc3ccccc23)c1F` [Example 57, 2-[1,4]Diazepan-1-yl-4-(2,3-difluoro-phenyl)-quinazoline] are 203 to 206 °C and 4 nM.
`Cl.c1ccc(-c2nc(N3CCCNCC3)nc3ccccc23)cc1` [Example 7, 2-[1,4]Diazepan-1-yl-4-phenyl-quinazoline hydrochloride] yielded a melting point of 230 to 231 °C. The Ki in data set [1] worked out at 2 nM.
The compound `CN1CCN(c2nc(-c3ccc(F)cc3)c3ccccc3n2)CC1` [Example 25, 4-(4-Fluoro-phenyl)-2-(4-methyl-piperazin-1-yl)-quinazoline] had a melting point of 130 to 131 °C. The affinity in data set [1] corresponds to a Ki of 82 nM.
The compound `Cl.Fc1cccc(-c2nc(N3CCNCC3)nc3ccccc23)c1F` [Example 37, 4-(2,3-Difluoro-phenyl)-2-piperazin-1-yl-quinazoline hydrochloride] gave a melting point of 273 to 276 °C. The affinity in data set [1] corresponds to a Ki of 3 nM.
`Cl.N[C@H]1CCCN(c2nc(-c3ccccc3F)c3ccccc3n2)C1` [Example 40, (S)-(+)-1-[4-(2-Fluoro-phenyl)-quinazolin-2-yl]-piperidin-3-ylamine hydrochloride] yielded a melting point of 288 to 289 °C. Moreover, in data set [1], the Ki was determined as 18 nM.
For `CC(C)c1nc(N2CCCNCC2)nc2ccccc12.Cl` [Example 8, 2-[1,4]Diazepan-1-yl-4-isopropyl-quinazoline hydrochloride], the melting point lay within 193 to 194 °C. Also, the Ki in data set [1] amounted to 4.8 nM.
Regarding `C[C@H]1CNCCN1c1nc(-c2ccccc2)c2ccccc2n1.Cl` [Example 15, (S)-(+)-2-(2-Methyl-piperazin-1-yl)-4-phenyl-quinazoline hydrochloride], the melting point is 154 to 157 °C. Affinity in data set [1] was put at a Ki of 4.6 nM.
Compound `Cl.Fc1ccccc1-c1nc(N2CCCNCC2)nc2ccccc12` [Example 21, 2-[1,4]Diazepan-1-yl-4-(2-fluoro-phenyl)-quinazoline hydrochloride] returned a melting point of 190 to 192 °C. Moreover, the Ki in data set [1] was found to be 3.7 nM.
The corresponding values for `CN1CCN(c2nc(-c3cccs3)c3ccccc3n2)CC1.O=C(O)C(=O)O` [Example 27, 2-(4-Methyl-piperazin-1-yl)-4-thiophen-2-yl-quinazoline oxalate] are 216 to 217 °C and 67.4 nM.
As to `Cc1ccc(-c2nc(N3CCN(C)CC3)nc3ccccc23)cc1` [Example 2, 2-(4-Methyl-piperazin-1-yl)-4-p-tolyl-quinazoline], the melting point lay within 85 to 87 °C. This compound yielded a Ki in data set [1] of 77.3 nM.
The corresponding values for `Cl.c1ccc(-c2nc(N3CC4CCCC(C3)N4)nc3ccccc23)cc1` [Example 32, 2-(3,9-Diaza-bicyclo[3.3.1]non-3-yl)-4-phenyl-quinazoline hydrochloride] are over 300 °C and 38.5 nM.
In the case of `CN1CCN(c2nc(-c3ccccc3F)c3ccccc3n2)CC1` [Example 18, 4-(2-Fluoro-phenyl)-2-(4-methyl-piperazin-1-yl)-quinazoline], the melting point fell in the range of 123 to 124 °C. The affinity in data set [1] corresponds to a Ki of 12 nM.
`Cl.Fc1cccc(Cl)c1-c1nc(N2CCNCC2)nc2ccccc12` [Example 36, 4-(2-Chloro-6-fluoro-phenyl)-2-piperazin-1-yl-quinazoline hydrochloride] had a melting point of 266 to 268 °C. The compound further displayed a Ki in data set [1] of 4 nM.
Take `Cl.Fc1ccccc1-c1nc(N2CCNCC2)nc2ccccc12` [Example 20, 4-(2-Fluoro-phenyl)-2-piperazin-1-yl-quinazoline hydrochloride]: the melting point lay in the range of 276 to 277 °C. The same compound yielded a Ki in data set [2] of 12 nM. The Ki in data set [1] was determined as 1.7 nM.
Regarding `Cl.N[C@@H]1CCN(c2nc(-c3ccccc3)c3ccccc3n2)C1` [Example 16, (R)-(−)1-(4-Phenyl-quinazolin-2-yl)-pyrrolidin-3-yl-amine hydrochloride], the melting point lay within 261 to 265 °C. For the same compound, affinity in data set [1] was put at a Ki of 31 nM.
`C[C@@H]1CNCCN1c1nc(-c2ccccc2)c2ccccc2n1.Cl` [Example 30, (R)-(−)-2-(2-Methyl-piperazin-1-yl)-4-phenyl-quinazoline hydrochloride] displayed a melting point of 150 to 161 °C. This compound showed a Ki in data set [1] of 5.5 nM.

Source of the values: US20050096327A1, “Novel norepinephrine reuptake inhibitors for the treatment of central nervous system disorders” (priority 2003, published 2005).
